Patent US20060069132A1, “Azolecarboxamide herbicides” (priority 2004, published 2006)

Experiments:
[1] = system: wheat; assay: Test B postemergence herbicide test; type: in vivo, Triticum aestivum; parameters: key to Wheat plant response rating: 0 = no effect, 100 = complete control; conditions: postemergence, visual rating, scale 0 (no effect) to 100 (complete control)
Procedure, shortened: (§1)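 Visual ratings, 0 (no effect) to 100 (complete control), made versus controls after 13–15 d greenhouse. Paddy plants treated at 2-leaf stage; postemergence plants at 1- to 4-leaf stage, 2–18 cm tall.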

[2] = system: small flower umbrella sedge; assay: Test B flooded paddy test; type: in vivo, Cyperus difformis; conditions: 1000 g ai/ha, scale 0 to 100 (0 no effect, 100 complete control)
Procedure, shortened: (§2)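 Visual control ratings, 0–100 versus untreated controls, taken after 13 to 15 days in the greenhouse. Blackgrass received a postemergence spray at the 1- to 4-leaf stage (2–18 cm); ducksalad, umbrella sedge and barnyardgrass were flooded-paddy treated at 2 leaves.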

[3] = system: giant foxtail; assay: Test B pre-/postemergence herbicide test; type: in vivo, Setaria faberi; conditions: for Foxtail, Giant plant response rating: postemergence, scale 0 (no effect) to 100 (complete control)
Procedure, shortened: (§3)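 Response was scored visually 13 to 15 days after treatment against untreated greenhouse controls, 0 meaning no effect and 100 complete control. Formulations (solvent mixture plus surfactant) went onto soil after planting, onto foliage of 1- to 4-leaf plants, and onto 2-leaf plants in a flooded paddy set including rice and barnyardgrass.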

[4] = system: pigweed; assay: Test B pre-/postemergence herbicide test; type: in vivo, Amaranthus retroflexus; conditions: for Pigweed plant response rating: postemergence, scale 0 (no effect) to 100 (complete control)
Procedure, shortened: as §3

[5] = system: velvetleaf; assay: Test B pre-/postemergence herbicide test; type: in vivo, Abutilon theophrasti; conditions: for Velvetleaf plant response rating: postemergence, scale 0 (no effect) to 100 (complete control)
Procedure, shortened: as §3

[6] = system: ducksalad; assay: Test C flooded paddy test; type: in vivo, Heteranthera limosa
[7] = system: corn; assay: Test B pre-/postemergence herbicide test; type: in vivo, Zea mays; conditions: for Corn plant response rating: postemergence, scale 0 (no effect) to 100 (complete control)
Procedure, shortened: as §3

[8] = system: smallflower umbrella sedge; assay: Test C flooded paddy test; type: in vivo, Cyperus difformis
[9] = system: barnyardgrass; assay: Test C flooded paddy test; type: in vivo, Echinochloa crus-galli
Procedure, shortened: (§4)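 Injury scored visually against controls on a 0 (no effect) to 100 (complete control) scale, 12 to 14 days after treatment in greenhouse. Flooded paddy plants treated at 2-leaf stage; postemergence plants at 1- to 4-leaf stage, 2 to 18 cm tall.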

[10] = system: barnyardgrass; assay: Test B flooded paddy test; type: in vivo, Echinochloa crus-galli; conditions: 1000 g ai/ha, scale 0 to 100 (0 no effect, 100 complete control)
Procedure, shortened: as §2

[11] = system: morningglory; assay: Test B pre-/postemergence herbicide test; type: in vivo, Ipomoea coccinea
Procedure, shortened: as §3

[12] = system: barnyardgrass; assay: Test B pre-/postemergence herbicide test; type: in vivo, Echinochloa crus-galli; conditions: 0 = no effect, 100 = complete control, preemergence
Procedure, shortened: as §3

[13] = system: lambsquarters; assay: Test B pre-/postemergence herbicide test; type: in vivo, Chenopodium album; conditions: for Lambsquarters plant response rating: postemergence, scale 0 (no effect) to 100 (complete control)
Procedure, shortened: as §3

[14] = system: blackgrass; assay: Test B postemergence herbicide test; type: in vivo, Alopecurus myosuroides; conditions: postemergence, visual rating, scale 0 (no effect) to 100 (complete control)
Procedure, shortened: as §2

[15] = system: wild oat; assay: Test B postemergence herbicide test; type: in vivo, Avena fatua; conditions: postemergence, visual rating, scale 0 (no effect) to 100 (complete control)
Procedure, shortened: as §1

[16] = system: ducksalad; assay: Test B flooded paddy test; type: in vivo, Heteranthera limosa; conditions: 1000 g ai/ha, scale 0 to 100 (0 no effect, 100 complete control)
Procedure, shortened: as §2

[17] = system: cocklebur; assay: Test B pre-/postemergence herbicide test; type: in vivo, Xanthium strumarium; conditions: for Cocklebur plant response rating: postemergence, scale 0 (no effect) to 100 (complete control)
Procedure, shortened: as §3

[18] = system: rice; assay: Test B flooded paddy test; type: in vivo, Oryza sativa; conditions: 1000 g ai/ha, scale 0 to 100 (0 no effect, 100 complete control)
Procedure, shortened: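 Postemergence plants were sprayed with formulated test chemicals at 2 to 18 cm height (1- to 4-leaf stage); paddy species were grown to the 2-leaf stage. After 13 to 15 days in a greenhouse, injury was rated visually against untreated controls on a 0–100 scale (0 = no effect, 100 = complete control).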

[19] = system: rice; assay: Test C flooded paddy test; type: in vivo, Oryza sativa
Procedure, shortened: as §4

[20] = system: Surinam grass; assay: Test B pre-/postemergence herbicide test; type: in vivo, Urochloa decumbens; conditions: for Surinam Grass plant response rating: postemergence, scale 0 (no effect) to 100 (complete control)
Procedure, shortened: as §3

[21] = system: large crabgrass; assay: Test B pre-/postemergence herbicide test; type: in vivo, Digitaria sanguinalis; conditions: for Crabgrass, Large plant response rating: postemergence, scale 0 (no effect) to 100 (complete control)
Procedure, shortened: as §3

[22] = system: rice; assay: Test B pre-/postemergence herbicide test; type: in vivo, Oryza sativa; conditions: 0 = no effect, 100 = complete control, preemergence
Procedure, shortened: as §3

[23] = 125 g ai/ha, 0 = no effect, 100 = complete control, preemergence
[24] = 500 g ai/ha, visual rating, 0 = no effect, 100 = complete control, preemergence
[25] = 62 g ai/ha, scale 0 to 100 (0 no effect, 100 complete control)
[26] = 125 g ai/ha, scale 0 to 100 (0 no effect, 100 complete control)
[27] = 250 g ai/ha, scale of 0 to 100, 0 is no effect, 100 is complete control
[28] = 500 g ai/ha, visual rating after 12 to 14 days, scale 0 to 100 (0 no effect, 100 complete control)

CCc1cn(C(C)(C)C)nc1C(=O)Nc1cc(C(=O)N(C)CC)ccn1 [Compound 235]
Wheat plant response rating ([1]; 125 g ai/ha): 0 | Wheat plant response rating ([1]; 500 g ai/ha): 20 | Sedge, Umbrella plant response rating [2]: 80 | Foxtail, Giant plant response rating (0 to 100 scale) [3, 23]: 0 | Plant response rating, Foxtail, Giant [3, 24]: 50 | Foxtail, Giant plant response rating ([3]; 125 g ai/ha, visual rating): 10 | Foxtail, Giant plant response rating ([3]; 500 g ai/ha, visual rating): 30 | Pigweed plant response rating (0 to 100 scale) [4, 23]: 30 | Plant response rating, Pigweed [4, 24]: 100 | Pigweed plant response rating ([4]; 125 g ai/ha, visual rating): 30 | Pigweed plant response rating ([4]; 500 g ai/ha, visual rating): 40 | Velvetleaf plant response rating (0 to 100 scale) [5, 23]: 10 | Plant response rating, Velvetleaf [5, 24]: 30 | Velvetleaf plant response rating ([5]; 125 g ai/ha, visual rating): 20 | Velvetleaf plant response rating ([5]; 500 g ai/ha, visual rating): 30 | Ducksalad plant response rating [6, 25]: 0 | Ducksalad plant response rating [6, 26]: 0 | Ducksalad plant response rating [6, 27]: 0 | Plant response rating, Ducksalad [6, 28]: 75 | Corn plant response rating (0 to 100 scale) [7, 23]: 0 | Plant response rating, Corn [7, 24]: 20 | Corn plant response rating ([7]; 125 g ai/ha, visual rating): 20 | Corn plant response rating ([7]; 500 g ai/ha, visual rating): 40 | Sedge, Umbrella plant response rating [8, 25]: 0 | Sedge, Umbrella plant response rating [8, 26]: 50 | Sedge, Umbrella plant response rating [8, 27]: 55 | Plant response rating, Sedge, Umbrella [8, 28]: 80 | Barnyardgrass plant response rating [9, 25]: 0 | Barnyardgrass plant response rating [9, 26]: 0 | Barnyardgrass plant response rating [9, 27]: 0 | Plant response rating, Barnyardgrass [9, 28]: 0 | Barnyardgrass plant response rating [10]: 40 | Morningglory plant response rating (0 to 100 scale) [11, 23]: 10 | Plant response rating, Morningglory [11, 24]: 10 | Morningglory plant response rating ([11]; postemergence, 500 g ai/ha, visual rating, scale 0 (no effect) to 100 (complete control)): 70 | Barnyardgrass plant response rating (0 to 100 scale) ([12]; 125 g ai/ha): 10 | Plant response rating, Barnyardgrass ([12]; 500 g ai/ha, visual rating): 50 | Lambsquarters plant response rating (0 to 100 scale) [13, 23]: 50 | Plant response rating, Lambsquarters [13, 24]: 90 | Lambsquarters plant response rating ([13]; 125 g ai/ha, visual rating): 40 | Lambsquarters plant response rating ([13]; 500 g ai/ha, visual rating): 50 | Blackgrass plant response rating ([14]; 125 g ai/ha): 0 | Blackgrass plant response rating ([14]; 500 g ai/ha): 20 | Oat, Wild plant response rating ([15]; 125 g ai/ha): 10 | Oat, Wild plant response rating ([15]; 500 g ai/ha): 20 | Ducksalad plant response rating [16]: 90 | Cocklebur plant response rating (0 to 100 scale) [17, 23]: 0 | Plant response rating, Cocklebur [17, 24]: 0 | Cocklebur plant response rating ([17]; 125 g ai/ha, visual rating): 0 | Cocklebur plant response rating ([17]; 500 g ai/ha, visual rating): 30 | Rice plant response rating [18]: 40 | Rice plant response rating [19, 25]: 0 | Rice plant response rating [19, 26]: 0 | Rice plant response rating [19, 27]: 25 | Plant response rating, Rice [19, 28]: 35 | Surinam Grass plant response rating (0 to 100 scale) [20, 23]: 10 | Plant response rating, Surinam Grass [20, 24]: 60 | Surinam Grass plant response rating ([20]; 125 g ai/ha, visual rating): 10 | Surinam Grass plant response rating ([20]; 500 g ai/ha, visual rating): 10 | Crabgrass, Large plant response rating (0 to 100 scale) [21, 23]: 40 | Plant response rating, Crabgrass, Large [21, 24]: 90 | Crabgrass, Large plant response rating ([21]; 125 g ai/ha, visual rating): 10 | Crabgrass, Large plant response rating ([21]; 500 g ai/ha, visual rating): 20 | Rice plant response rating (0 to 100 scale) ([22]; 125 g ai/ha): 0 | Plant response rating, Rice ([22]; 500 g ai/ha, visual rating): 20
